Laboratory results from PubChem BioAssay (NCI).
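48-hour exposure; five concentrations; linearly interpolated endpoints. The concentration for 50% growth inhibition is given as GI50. Definition used: TGI = concentration required for complete inhibition of growth.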

Legend:
Assay in all cases: DTP human tumour cell line panel, 48 h
SK-OV-3 ovarian = system: SK-OV-3 ovarian
MALME-3M melanoma = system: MALME-3M melanoma
LXFL 529 NSCLC = system: LXFL 529 NSCLC
DLD-1 colon = system: DLD-1 colon
NCI-H23 lung = system: NCI-H23 lung
EKVX NSCLC = system: EKVX NSCLC
SK-MEL-2 melanoma = system: SK-MEL-2 melanoma
RPMI-8226 leukemia = system: RPMI-8226 leukemia
TK-10 renal = system: TK-10 renal
UACC-62 melanoma = system: UACC-62 melanoma
OVCAR-4 ovarian = system: OVCAR-4 ovarian

SMILES | TGI (SK-OV-3 ovarian) [µM] | TGI (MALME-3M melanoma) [µM] | TGI (LXFL 529 NSCLC) [µM] | TGI (DLD-1 colon) [µM] | TGI (NCI-H23 lung) [µM] | TGI (EKVX NSCLC) [µM] | TGI (SK-MEL-2 melanoma) [µM] | TGI (RPMI-8226 leukemia) [µM] | TGI (TK-10 renal) [µM] | TGI (UACC-62 melanoma) [µM] | TGI (OVCAR-4 ovarian) [µM] | GI50 (SK-OV-3 ovarian) [µM] | GI50 (MALME-3M melanoma) [µM] | GI50 (OVCAR-4 ovarian) [µM] | GI50 (NCI-H23 lung) [µM] | GI50 (EKVX NSCLC) [µM] | GI50 (SK-MEL-2 melanoma) [µM] | GI50 (RPMI-8226 leukemia) [µM] | GI50 (TK-10 renal) [µM] | GI50 (UACC-62 melanoma) [µM]
COc1cc2c(Cc3cc(OCc4ccccc4)ccc3N)nccc2c(OC)c1OC | > 10 | > 10 | > 10 | > 10 | > 10 | > 10 | > 10 | > 10 | > 10 | > 10 | – | – | – | – | – | – | – | – | – | –
CN(C)CC1=Nc2cccc3cccc(c23)N1 | > 100 | 36.5 | – | – | 49.9 | 31.7 | 35.5 | 55.8 | 32.3 | 29.6 | 26.6 | – | – | – | – | – | – | – | – | –
O=C(NN1C(=O)CSC12CCC(c1ccccc1)CC2)c1[nH]c2ccc(F)cc2c1-c1ccccc1 (stereo not drawn) | > 100 | 30.9 | – | – | 32 | 62 | 33.2 | 31.8 | 31.7 | 23.8 | 32.5 | 37.7 | 16.2 | 15.8 | 17.4 | 26.7 | 17.6 | 13.8 | 17.3 | 10.8
O=c1cc(-c2ccc(O)cc2)oc2cc(O)cc(O)c12 | 89.8 | 88.3 | 37.3 | – | 46.6 | 96.9 | 80.3 | > 100 | > 100 | > 100 | > 100 | – | – | – | – | – | – | – | – | –
Cc1cc(Cl)ccc1Nc1nc(C(F)(F)F)ccc1C(=O)Nc1cccc(C(F)(F)F)c1 | 10.8 | 9.17 | – | – | 11.1 | 11.1 | 13.3 | 12 | 21 | 14.4 | 11.3 | 2.44 | 1.97 | 3.07 | 2.85 | 1.85 | 3.23 | 2.73 | 4.4 | 4
CCc1nc(N)nc(N)c1C#CC(C)c1cc(-c2ccnc(C)c2)c2oc(C)nc2c1 (stereo not drawn) | 8.53 | 14.4 | – | – | 5.31 | 15 | 10.6 | 3.31 | 12 | 3.23 | 26.4 | 0.113 | 2.11 | 4.54 | < 0.01 | 0.451 | 1.9 | 0.0771 | 0.126 | < 0.01
Cc1cccc(N=C2NC(=O)C(CC(=O)Nc3ccccc3Cl)S2)c1 (stereo not drawn) | – | > 100 | > 100 | > 100 | > 100 | > 100 | > 100 | > 100 | > 100 | > 100 | > 100 | – | – | – | – | – | – | – | – | –
Cc1ccccc1NC(=O)c1cc2ccccc2cc1O | 14.6 | 7.29 | – | – | 6.6 | 91.8 | 8.05 | 8.9 | > 100 | > 100 | > 100 | 2.64 | 1.98 | 3.44 | 2.36 | 2.36 | 3.33 | 2.83 | 4.2 | 3.48
COc1ccc2c(c1)C=C1CSCC3=Cc4cc(OC)ccc4OC13O2 | > 100 | > 100 | – | – | > 100 | > 100 | > 100 | > 34.4 | > 100 | > 100 | > 100 | 0.671 | 0.473 | 1.54 | 1.01 | 3.14 | 0.625 | 0.368 | > 100 | 0.783
CC1=NN(c2ccccc2)C(=O)C1N=Nc1ccc(S(N)(=O)=O)cc1 (stereo not drawn) | > 100 | > 100 | – | – | > 100 | > 100 | > 100 | > 100 | > 100 | > 100 | > 100 | – | – | – | – | – | – | – | – | –
O=C1NC(c2ccccc2)N=C2Oc3ccccc3C=C12 (stereo not drawn) | > 100 | > 100 | – | – | > 100 | > 100 | > 100 | > 100 | > 100 | > 100 | > 100 | – | – | – | – | – | – | – | – | –
CCCC(CCC)C(=O)OCC1(CO)C/C(=C\c2ccc(C(F)(F)F)cc2)C(=O)O1 (stereo not drawn) | 34 | 31.7 | – | – | 32.1 | 27.2 | 36 | 26.9 | 20.3 | 27.1 | 34.4 | 19.7 | 16.4 | 17.9 | 15.8 | 11 | 18.6 | 10.7 | 5.62 | 11
NNC(=S)N/N=C(/C(=O)Nc1ccc([N+](=O)[O-])cc1)c1nc2ccc([N+](=O)[O-])cc2[nH]c1=O | > 100 | > 100 | – | > 100 | > 100 | > 100 | > 100 | > 100 | > 100 | > 100 | > 100 | – | – | – | – | – | – | – | – | –
NC(=O)N/N=C(\CCC(=O)N(Cc1ccccc1)Cc1ccccc1)CC(=O)c1ccc(F)cc1 | > 100 | > 100 | > 100 | > 100 | > 100 | > 100 | > 100 | – | > 100 | > 100 | > 100 | – | – | – | – | – | – | – | – | –
O=C1/C(=C\c2ccccc2)c2ccccc2N1/N=C\c1ccccc1 | > 100 | > 100 | – | > 100 | > 100 | > 100 | > 100 | > 100 | > 100 | > 100 | > 100 | – | – | – | – | – | – | – | – | –
CC1=NN(C(=O)c2nn(-c3ccc(Cl)cc3)cc2O)C(=O)C1 | > 100 | 99.5 | – | – | > 100 | > 100 | > 100 | > 88.9 | > 100 | > 80.8 | > 100 | 1.79 | 9.29 | 3 | 3.03 | 1.93 | 53.7 | 1.07 | 0.578 | 2.28
O=C1NN=CN2C(=O)CCC12 (stereo not drawn) | > 100 | – | > 100 | > 100 | > 100 | > 100 | > 100 | > 100 | > 100 | > 100 | > 100 | – | – | – | – | – | – | – | – | –
